Reference: PubChem BioAssay AID2060905 (Molecular Pharmacology Branch, DTP, NCI, 2025)
pIC50: −log10 of the molar value.

System: 282377-053-R-J1-PDC complex spheroid viability
Experiment: Anticancer human tumor 282377-053-R-J1-PDC patient-derived colon adenocarcinoma cell line growth inhibition [RAS]
Conditions: for pIC50: curve of first compound; for viability, T/C: stronger effect = lower value
Summary of the method: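 Multi-cell-type spheroids: tumor cells plus HUVEC endothelial cells and mesenchymal stem cells. RAS-pathway inhibitors were combined with targeted agents, each dosed in half-log steps down from clinical Cmax, or from 10 microM when Cmax was unknown.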

[1] = second compound 0.000949 µM, first compound 0.0316 µM
[2] = second compound 0.000949 µM, first compound 0.1 µM
[3] = second compound 0.000949 µM, first compound 0.316 µM
[4] = second compound 0.000949 µM, first compound 1 µM
[5] = second compound 0.000949 µM, first compound 3.16 µM
[6] = second compound 0.000949 µM, first compound 10 µM
[7] = second compound 0.003 µM, first compound 0.0316 µM
[8] = second compound 0.003 µM, first compound 0.1 µM
[9] = second compound 0.003 µM, first compound 0.316 µM
[10] = second compound 0.003 µM, first compound 1 µM
[11] = second compound 0.003 µM, first compound 3.16 µM
[12] = second compound 0.003 µM, first compound 10 µM
[13] = second compound 0.00949 µM, first compound 0.0316 µM
[14] = second compound 0.00949 µM, first compound 0.1 µM
[15] = second compound 0.00949 µM, first compound 0.316 µM
[16] = second compound 0.00949 µM, first compound 1 µM
[17] = second compound 0.00949 µM, first compound 3.16 µM
[18] = second compound 0.00949 µM, first compound 10 µM
[19] = second compound 0.03 µM, first compound 0.0316 µM
[20] = second compound 0.03 µM, first compound 0.1 µM
[21] = second compound 0.03 µM, first compound 0.316 µM
[22] = second compound 0.03 µM, first compound 1 µM
[23] = second compound 0.03 µM, first compound 3.16 µM
[24] = second compound 0.03 µM, first compound 10 µM
[25] = second compound 0.0949 µM, first compound 0.0316 µM
[26] = second compound 0.0949 µM, first compound 0.1 µM
[27] = second compound 0.0949 µM, first compound 0.316 µM
[28] = second compound 0.0949 µM, first compound 1 µM
[29] = second compound 0.0949 µM, first compound 3.16 µM
[30] = second compound 0.0949 µM, first compound 10 µM
[31] = second compound 0.3 µM, first compound 0.0316 µM
[32] = second compound 0.3 µM, first compound 0.1 µM
[33] = second compound 0.3 µM, first compound 0.316 µM
[34] = second compound 0.3 µM, first compound 1 µM
[35] = second compound 0.3 µM, first compound 3.16 µM
[36] = second compound 0.3 µM, first compound 10 µM
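Further: spheroids exposed to agents for seven days before readout.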
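Wherever viability, T/C is given: luminescence viability as percent of DMSO vehicle control wells.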

Cc1nc(N2CCC3(CC2)COC(C)C3N)c(CO)nc1Sc1ccnc(N)c1Cl (stereo unspecified) + CCn1c(-c2cc(N3CCN(C)CC3)cnc2C(C)OC)c2c3cc(ccc31)-c1csc(n1)CC(NC(=O)C1CC1C)C(=O)N1CCCC(N1)C(=O)OCC(C)(C)C2
pIC50 (second compound 0.000949 µM): < 5.00
pIC50 (second compound 0.003 µM): < 5.00
pIC50 (second compound 0.00949 µM): < 5.00
pIC50 (second compound 0.03 µM): < 5.00
pIC50 (second compound 0.0949 µM): < 5.00
pIC50 (second compound 0.3 µM): < 5.00
viability, T/C [1]: 88.7%
viability, T/C [2]: 92.8%
viability, T/C [3]: 89.5%
viability, T/C [4]: 87.7%
viability, T/C [5]: 76.8%
viability, T/C [6]: 96.8%
viability, T/C [7]: 80.6%
viability, T/C [8]: 94.4%
viability, T/C [9]: 78.7%
viability, T/C [10]: 80.5%
viability, T/C [11]: 94.8%
viability, T/C [12]: 96.5%
viability, T/C [13]: 82.7%
viability, T/C [14]: 64.8%
viability, T/C [15]: 74.6%
viability, T/C [16]: 105%
viability, T/C [17]: 74.5%
viability, T/C [18]: 94%
viability, T/C [19]: 80.6%
viability, T/C [20]: 82.2%
viability, T/C [21]: 90.1%
viability, T/C [22]: 85.3%
viability, T/C [23]: 88%
viability, T/C [24]: 91.1%
viability, T/C [25]: 69.7%
viability, T/C [26]: 93.5%
viability, T/C [27]: 88.9%
viability, T/C [28]: 78.6%
viability, T/C [29]: 95.5%
viability, T/C [30]: 93.8%
viability, T/C [31]: 80.5%
viability, T/C [32]: 88.8%
viability, T/C [33]: 91.1%
viability, T/C [34]: 105%
viability, T/C [35]: 112%
viability, T/C [36]: 89.8%

NC1c2ccccc2OC12CCN(c1cnc3c(N4CCCc5ncccc54)n[nH]c3n1)CC2 (stereo unspecified) + CCn1c(-c2cc(N3CCN(C)CC3)cnc2C(C)OC)c2c3cc(ccc31)-c1csc(n1)CC(NC(=O)C1CC1C)C(=O)N1CCCC(N1)C(=O)OCC(C)(C)C2
pIC50 (second compound 0.000949 µM): < 5.00
pIC50 (second compound 0.003 µM): < 5.00
pIC50 (second compound 0.00949 µM): < 5.00
pIC50 (second compound 0.03 µM): < 5.00
pIC50 (second compound 0.0949 µM): < 5.00
pIC50 (second compound 0.3 µM): < 5.00
viability, T/C [1]: 96.6%
viability, T/C [2]: 102%
viability, T/C [3]: 87.7%
viability, T/C [4]: 99.9%
viability, T/C [5]: 106%
viability, T/C [6]: 140%
viability, T/C [7]: 97.4%
viability, T/C [8]: 102%
viability, T/C [9]: 96.3%
viability, T/C [10]: 99%
viability, T/C [11]: 93.7%
viability, T/C [12]: 98.6%
viability, T/C [13]: 135%
viability, T/C [14]: 96.2%
viability, T/C [15]: 111%
viability, T/C [16]: 90.8%
viability, T/C [17]: 100%
viability, T/C [18]: 107%
viability, T/C [19]: 115%
viability, T/C [20]: 109%
viability, T/C [21]: 101%
viability, T/C [22]: 123%
viability, T/C [23]: 122%
viability, T/C [24]: 97%
viability, T/C [25]: 108%
viability, T/C [26]: 118%
viability, T/C [27]: 100%
viability, T/C [28]: 107%
viability, T/C [29]: 111%
viability, T/C [30]: 112%
viability, T/C [31]: 126%
viability, T/C [32]: 152%
viability, T/C [33]: 105%
viability, T/C [34]: 117%
viability, T/C [35]: 110%
viability, T/C [36]: 106%

Nc1ccn(C2OC(CO)C(O)C2(F)F)c(=O)n1 (stereo unspecified) + CCn1c(-c2cc(N3CCN(C)CC3)cnc2C(C)OC)c2c3cc(ccc31)-c1csc(n1)CC(NC(=O)C1CC1C)C(=O)N1CCCC(N1)C(=O)OCC(C)(C)C2
pIC50 (second compound 0.000949 µM): < 6.00
pIC50 (second compound 0.003 µM): < 6.00
pIC50 (second compound 0.00949 µM): < 6.00
pIC50 (second compound 0.03 µM): < 6.00
pIC50 (second compound 0.0949 µM): < 6.00
pIC50 (second compound 0.3 µM): < 6.00
viability, T/C (second compound 0.000949 µM, first compound 0.00316 µM): 107%
viability, T/C (second compound 0.000949 µM, first compound 0.01 µM): 95.1%
viability, T/C [1]: 120%
viability, T/C [2]: 107%
viability, T/C [3]: 101%
viability, T/C [4]: 66.8%
viability, T/C (second compound 0.003 µM, first compound 0.00316 µM): 90%
viability, T/C (second compound 0.003 µM, first compound 0.01 µM): 110%
viability, T/C [7]: 106%
viability, T/C [8]: 111%
viability, T/C [9]: 93.8%
viability, T/C [10]: 64.6%
viability, T/C (second compound 0.00949 µM, first compound 0.00316 µM): 116%
viability, T/C (second compound 0.00949 µM, first compound 0.01 µM): 95.9%
viability, T/C [13]: 129%
viability, T/C [14]: 107%
viability, T/C [15]: 96.4%
viability, T/C [16]: 69%
viability, T/C (second compound 0.03 µM, first compound 0.00316 µM): 104%
viability, T/C (second compound 0.03 µM, first compound 0.01 µM): 100%
viability, T/C [19]: 108%
viability, T/C [20]: 115%
viability, T/C [21]: 86.7%
viability, T/C [22]: 71.5%
viability, T/C (second compound 0.0949 µM, first compound 0.00316 µM): 104%
viability, T/C (second compound 0.0949 µM, first compound 0.01 µM): 95.2%
viability, T/C [25]: 100%
viability, T/C [26]: 106%
viability, T/C [27]: 123%
viability, T/C [28]: 72.5%
viability, T/C (second compound 0.3 µM, first compound 0.00316 µM): 120%
viability, T/C (second compound 0.3 µM, first compound 0.01 µM): 94.2%
viability, T/C [31]: 129%
viability, T/C [32]: 131%
viability, T/C [33]: 118%
viability, T/C [34]: 108%
